The assay addresses Carbonic anhydrase 9 (Homo sapiens, UniProt Q16790).
What is called Ki is a dissociation constant, usually derived from enzyme kinetics or from competition with a known ligand. Lower therefore signals tighter binding. As for `NS(=O)(=O)c1ccc(C(=O)NCc2cn([C@@H]3O[C@H](CO)[C@@H](O)[C@H](O)[C@H]3O)nn2)cc1`, the affinity, expressed as Ki, was 442 nM. In the case of `COC(=O)[C@H]1O[C@@H](n2cc(COC(=O)c3ccc(S(N)(=O)=O)cc3)nn2)[C@H](O)[C@@H](O)[C@@H]1O` it was 241 nM. In turn, `CO[C@H]1O[C@H](Cn2cc(CNC(=O)c3ccc(S(N)(=O)=O)cc3)nn2)[C@@H](O)[C@H](O)[C@H]1O` gave a Ki of 204 nM. In the case of `C#CCOC(=O)c1ccc(S(N)(=O)=O)cc1` it was 104 nM; in that of `CC(=O)N[C@@H]1[C@@H](OC(C)=O)[C@H](OC(C)=O)[C@@H](COC(C)=O)O[C@H]1n1cc(COC(=O)c2ccc(S(N)(=O)=O)cc2)nn1`, 1200 nM; in that of `NS(=O)(=O)c1ccc(C(=O)OCc2cn([C@@H]3O[C@H](CO)[C@@H](O)[C@H](O)[C@H]3O)nn2)cc1`, 183 nM.

For `CC(=O)OC[C@H]1O[C@@H](n2cc(CNC(=O)c3ccc(S(N)(=O)=O)cc3)nn2)[C@H](OC(C)=O)[C@@H](OC(C)=O)[C@@H]1OC(C)=O`, the Ki is 430 nM. The figure for `NS(=O)(=O)c1ccc(C(=O)OCc2cn([C@@H]3O[C@H](CO)[C@H](O)[C@H](O)[C@H]3O)nn2)cc1` is 65 nM; for `NS(=O)(=O)c1ccc(C(=O)OCc2cn([C@@H]3OC[C@@H](O)[C@@H](O)[C@@H]3O)nn2)cc1` it is 96 nM; for `CC(=O)OC[C@H]1O[C@@H](n2cc(CNC(=O)c3ccc(S(N)(=O)=O)cc3)nn2)[C@H](OC(C)=O)[C@@H](OC(C)=O)[C@H]1OC(C)=O` it is 76 nM. The compound `CC(=O)OC[C@H]1O[C@@H](n2cc(COC(=O)c3ccc(S(N)(=O)=O)cc3)nn2)[C@H](OC(C)=O)[C@@H](OC(C)=O)[C@@H]1O[C@H]1O[C@H](COC(C)=O)[C@@H](OC(C)=O)[C@H](OC(C)=O)[C@H]1OC(C)=O` displayed a Ki of 130 nM. In turn, `COC(=O)[C@H]1O[C@@H](n2cc(CNC(=O)c3ccc(S(N)(=O)=O)cc3)nn2)[C@H](OC(C)=O)[C@@H](OC(C)=O)[C@@H]1OC(C)=O` returned a Ki of 471 nM.

The record behind these values is ChEMBL document CHEMBL1137320, “A novel class of carbonic anhydrase inhibitors: glycoconjugate benzene sulfonamides prepared by "click-tailing"” (J Med Chem, 2006).
